Assay results: patent US20080207677A1, “Napthyridine Compounds As Rock Inhibitors” (GPC BIOTECH AG, priority 2004, published 2008)
pIC50: −log10 of the molar value.

Legend:
[1] = target: T1, recombinant human ROCK2 (amino acids 1-530, aminoterminal 6×His tag) (Homo sapiens, UniProt O75116); assay: Determination of ROCK kinase activity, IMAP assay, ROCK2 human; format: biochemical; settings: for pIC50: in vitro kinase assay, ATP 34.8 μM; for inhibition at 10 µM: % inhibition of the protein kinase ROCK2 at a concentration of 10 μM
T1 construct: recombinant human ROCK2 (amino acids 1-530, aminoterminal 6×His tag); 6xHis (N)
Method: (§1) Determination of ROCK Kinase Activity
(§2) IC50 values for the various compounds were determined with recombinant human ROCK1 (amino acids 1-555, aminoterminal 6×His tag) and recombinant human ROCK2 (amino acids 1-530, aminoterminal 6×His tag) under the following reaction conditions:
• 11) Add 6 μl 8/6 fold concentrated Substrate+8/6 fold concentrated ATP in 1 fold concentrated Reaction Buffer to each well of Assay Plate • 12) Add 10.8 nl 740 fold concentrated Inhibitor in 100% DMSO to each well except to C− and C+ wells using pintool • 13) Add 10.8 nl 100% DMSO to C− and C+ wells using pintool • 14) Add 2 μl Reaction Buffer to C− wells • 15) Add 2 μl 4 fold concentrated Kinase in Reaction Buffer to each well except C− wells • 16) Incubate according to Reaction Time at room temperature • 17) Add 15 μl IMAP Binding Solution to each well • 18) Incubate according to IMAP Incubation Time at room temperature • 19) Measure Fluorescence Polarization • 20) Measure Fluorescence Intensity

[2] = target: T2, recombinant human ROCK1 (amino acids 1-555, aminoterminal 6×His tag) (Homo sapiens, UniProt Q13464); assay: Determination of ROCK kinase activity, IMAP assay, ROCK1 human; format: biochemical; settings: in vitro kinase assay, ATP 38.9 μM
T2 construct: recombinant human ROCK1 (amino acids 1-555, aminoterminal 6×His tag); 6xHis (N)
Method: as §1, §2
• 1) Add 6 μl 8/6 fold concentrated Substrate+8/6 fold concentrated ATP in 1 fold concentrated Reaction Buffer to each well of Assay Plate • 2) Add 10.8 nl 740 fold concentrated Inhibitor in 100% DMSO to each well except to C− and C+ wells using pintool • 3) Add 10.8 nl 100% DMSO to C− and C+ wells using pintool • 4) Add 2 μl Reaction Buffer to C− wells • 5) Add 2 μl 4 fold concentrated Kinase in Reaction Buffer to each well except C− wells • 6) Incubate according to Reaction Time at room temperature • 7) Add 15 μl IMAP Binding Solution to each well • 8) Incubate according to IMAP Incubation Time at room temperature • 9) Measure Fluorescence Polarization • 10) Measure Fluorescence Intensity

T1 sequence (O75116 1-530): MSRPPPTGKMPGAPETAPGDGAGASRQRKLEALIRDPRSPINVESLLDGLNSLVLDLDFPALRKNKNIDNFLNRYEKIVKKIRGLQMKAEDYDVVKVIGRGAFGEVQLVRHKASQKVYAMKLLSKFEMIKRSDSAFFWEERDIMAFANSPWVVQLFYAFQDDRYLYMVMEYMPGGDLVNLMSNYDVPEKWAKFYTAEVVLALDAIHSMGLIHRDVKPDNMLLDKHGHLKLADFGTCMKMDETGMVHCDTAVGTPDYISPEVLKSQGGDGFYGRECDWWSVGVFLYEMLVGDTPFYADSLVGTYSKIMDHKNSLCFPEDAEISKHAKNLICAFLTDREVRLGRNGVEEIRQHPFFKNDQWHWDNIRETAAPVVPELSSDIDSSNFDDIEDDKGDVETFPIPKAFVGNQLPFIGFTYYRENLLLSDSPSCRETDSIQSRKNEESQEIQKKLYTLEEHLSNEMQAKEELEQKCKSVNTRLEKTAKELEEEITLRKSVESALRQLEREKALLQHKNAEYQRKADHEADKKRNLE
T2 sequence (Q13464 1-555): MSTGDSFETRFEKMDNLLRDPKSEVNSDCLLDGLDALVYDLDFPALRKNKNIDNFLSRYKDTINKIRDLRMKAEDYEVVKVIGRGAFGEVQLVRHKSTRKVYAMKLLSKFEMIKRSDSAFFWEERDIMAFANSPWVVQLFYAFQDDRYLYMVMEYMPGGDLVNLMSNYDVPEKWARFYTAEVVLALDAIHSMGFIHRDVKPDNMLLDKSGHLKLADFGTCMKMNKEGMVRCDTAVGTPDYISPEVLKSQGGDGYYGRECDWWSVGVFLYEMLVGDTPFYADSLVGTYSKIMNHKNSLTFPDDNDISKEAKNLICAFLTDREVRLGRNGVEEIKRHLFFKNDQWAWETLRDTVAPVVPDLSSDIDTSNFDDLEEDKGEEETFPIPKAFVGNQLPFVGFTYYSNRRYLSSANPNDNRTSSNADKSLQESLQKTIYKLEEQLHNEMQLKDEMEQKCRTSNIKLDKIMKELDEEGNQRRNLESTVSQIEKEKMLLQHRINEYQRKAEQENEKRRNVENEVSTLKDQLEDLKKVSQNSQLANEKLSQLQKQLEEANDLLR

SMILES	pIC50 [1]	pIC50 [2]	inhibition at 10 µM [1] [%]
C[C@@H](NC(=O)c1ccc2cnccc2n1)c1ccc(Cl)cc1 [(R)-[1,6]Naphthyridine-2-carboxylic acid 1-(4-chloro-phenyl)-ethylamide]	6.44		
Cc1ccc([C@@H](C)NC(=O)c2ccc3cnccc3n2)cc1 [(R)-[1,6]Naphthyridine-2-carboxylic acid 1-(4-methylphenyl)-ethylamide]	6.39		
C[C@@H](NC(=O)c1ccc2cnccc2n1)c1ccc2ccccc2c1 [(R)-[1,6]Naphthyridine-2-carboxylic acid 1-(naphth-2-yl)-ethylamide]	6.06	5.63	
CC[C@@H](NC(=O)c1ccc2cnccc2n1)c1ccccc1 [(R)-[1,6]Naphthyridine-2-carboxylic acid 1-phenyl-propylamide]	6.80		
NC(=O)[C@H](Cc1ccccc1)NC(=O)c1ccc2cnccc2n1 [(S)-[1,6]Naphthyridine-2-carboxylic acid (1-carbamoyl-2-phenyl-ethyl)-amide]	5.25	5.09	
NC(=O)[C@H](Cc1ccc(O)cc1)NC(=O)c1ccc2cnccc2n1 [(S)-[1,6]Naphthyridine-2-carboxylic acid [1-carbamoyl-2-(4-hydroxy-phenyl)-ethyl]-amide]	5.37	5.17	
O=C(NCc1cccc(Br)c1)c1ccc2cnccc2n1 [Compound 1, [1,6]Naphthyridine-2-carboxylic acid 3-bromo-benzylamide]	5.98	6.04	87
O=C(NCc1ccccc1F)c1ccc2cnccc2n1 [Compound 2, [1,6]Naphthyridine-2-carboxylic acid 2-fluoro-benzylamide]	5.68	6.10	
O=C(NCc1ccc(Br)cc1)c1ccc2cnccc2n1 [Compound 3, [1,6]Naphthyridine-2-carboxylic acid 4-bromo-benzylamide]	5.88	5.86	
CC(NC(=O)c1ccc2cnccc2n1)c1ccccc1 (stereo not drawn) [Compound 4, [1,6]Naphthyridine-2-carboxylic acid (1-phenyl-ethyl)-amide]	5.80	6.15	81
NC(=O)C(Cc1ccccc1)NC(=O)c1ccc2cnccc2n1 (stereo not drawn) [Compound 5, [1,6]Naphthyridine-2-carboxylic acid (1-carbamoyl-2-phenyl-ethyl)-amide]			62
NC(=O)C(Cc1ccc(Cl)cc1)NC(=O)c1ccc2cnccc2n1 (stereo not drawn) [Compound 6, [1,6]Naphthyridine-2-carboxylic acid [1-carbamoyl-2-(4-chloro-phenyl)-ethyl]-amide]			65
C[C@@H](NC(=O)c1ccc2cnccc2n1)c1ccccc1 [Compound 7, [1,6]Naphthyridine-2-carboxylic acid ((R)-1-phenyl-ethyl)-amide]	6.04	5.95	88
C[C@H](NC(=O)c1ccc2cnccc2n1)c1ccccc1 [Compound 8, [1,6]Naphthyridine-2-carboxylic acid ((S)-1-phenyl-ethyl)-amide]			37
CCC(NC(=O)c1ccc2cnccc2n1)c1cccc(Cl)c1 (stereo not drawn) [[1,6]Naphthyridine-2-carboxylic acid 1-(3-chlorophenyl)-propylamide]	6.42	6.52	
CC(NC(=O)c1ccc2cnccc2n1)c1ccc(Br)cc1 (stereo not drawn) [[1,6]Naphthyridine-2-carboxylic acid 1-(4-bromo-phenyl)-ethylamide]	6.05	6.01	
CC(NC(=O)c1ccc2cnccc2n1)c1ccc(Cl)cc1 (stereo not drawn) [[1,6]Naphthyridine-2-carboxylic acid 1-(4-chlorophenyl)-ethylamide]	6.11	5.96	
CCC(NC(=O)c1ccc2cnccc2n1)c1ccc(Cl)cc1 (stereo not drawn) [[1,6]Naphthyridine-2-carboxylic acid 1-(4-chlorophenyl)-propylamide]	6.32	5.90	
CC(NC(=O)c1ccc2cnccc2n1)c1ccc(F)cc1 (stereo not drawn) [[1,6]Naphthyridine-2-carboxylic acid 1-(4-fluorophenyl)-ethylamide]	6.47	6.03	

SMILES	pIC50 [1]	pIC50 [2]	inhibition at 10 µM [1] [%]
COc1ccc(C(C)NC(=O)c2ccc3cnccc3n2)cc1 (stereo not drawn) [[1,6]Naphthyridine-2-carboxylic acid 1-(4-methoxyphenyl)-ethylamide]	4.97		
Cc1ccc(C(C)NC(=O)c2ccc3cnccc3n2)cc1 (stereo not drawn) [[1,6]Naphthyridine-2-carboxylic acid 1-(4-methylphenyl)-ethylamide]	5.85	5.89	
CCC(NC(=O)c1ccc2cnccc2n1)c1ccc(C)cc1 (stereo not drawn) [[1,6]Naphthyridine-2-carboxylic acid 1-(4-methylphenyl)-propylamide]	5.90	6.10	
CCC(NC(=O)c1ccc2cnccc2n1)c1cccs1 (stereo not drawn) [[1,6]Naphthyridine-2-carboxylic acid 1-(thiophen-2-yl)-propylamide]	6.00		
CC(NC(=O)c1ccc2cnccc2n1)c1ccsc1 (stereo not drawn) [[1,6]Naphthyridine-2-carboxylic acid 1-(thiophen-3-yl)-ethylamide]	5.72		
CCC(NC(=O)c1ccc2cnccc2n1)c1ccccc1 (stereo not drawn) [[1,6]Naphthyridine-2-carboxylic acid 1-phenyl-propylamide]	6.30	6.18	
O=C(NCCc1ccc(Br)cc1)c1ccc2cnccc2n1 [[1,6]Naphthyridine-2-carboxylic acid 2-(4-bromo-phenyl)-ethylamide]	5.82	5.82	
O=C(NCCc1ccc(Cl)cc1)c1ccc2cnccc2n1 [[1,6]Naphthyridine-2-carboxylic acid 2-(4-chloro-phenyl)-ethylamide]	5.24	5.72	
O=C(NCc1ccccc1Br)c1ccc2cnccc2n1 [[1,6]Naphthyridine-2-carboxylic acid 2-bromo-benzylamide]	5.14	5.65	
O=C(NCc1ccccc1Cl)c1ccc2cnccc2n1 [[1,6]Naphthyridine-2-carboxylic acid 2-chloro-benzylamide]	5.42	5.32	
CCOc1ccccc1CNC(=O)c1ccc2cnccc2n1 [[1,6]Naphthyridine-2-carboxylic acid 2-ethoxy-benzylamide]	4.89		
O=C(NCc1cccc(Cl)c1)c1ccc2cnccc2n1 [[1,6]Naphthyridine-2-carboxylic acid 3-chloro-benzylamide]	5.59	6.21	
COc1cccc(CNC(=O)c2ccc3cnccc3n2)c1 [[1,6]Naphthyridine-2-carboxylic acid 3-methoxy-benzylamide]	5.51	5.48	
O=C(NCc1ccc(Cl)cc1)c1ccc2cnccc2n1 [[1,6]Naphthyridine-2-carboxylic acid 4-chloro-benzylamide]	5.68	5.69	
COc1ccc(CNC(=O)c2ccc3cnccc3n2)cc1 [[1,6]Naphthyridine-2-carboxylic acid 4-methoxy-benzylamide]	5.29	5.22	
Cc1ccc(CNC(=O)c2ccc3cnccc3n2)cc1 [[1,6]Naphthyridine-2-carboxylic acid 4-methyl-benzylamide]	5.65	5.89	
O=C(NCc1ccc2c(c1)OCO2)c1ccc2cnccc2n1 [[1,6]Naphthyridine-2-carboxylic acid (benzo[1,3]dioxol-5-ylmethyl)-amide]	5.73	5.84	
O=C(NCc1ccccc1)c1ccc2cnccc2n1 [[1,6]Naphthyridine-2-carboxylic acid benzylamide]	5.11	5.50	
O=C(NCc1cccs1)c1ccc2cnccc2n1 [[1,6]Naphthyridine-2-carboxylic acid thiophen-2-yl-methylamide]	5.11	5.71	
